Assay results reported in PMC9847973, “Characterizing inhibitors of human AP endonuclease 1” (PLOS ONE, 2023).
Where two headings read alike, the source gives them in different places. Each block holds one compound with its values, some of them ahead of it.

Legend:
[1] = target: T1, apo APE1^ΔN38 (Homo sapiens, UniProt P27695); assay: NMR chemical shift perturbation (15N-TROSY), apo APE1; assay type: binding; details: for number of residues with substantial CSPs (Δδ ≥ 0.015 ppm) / sum of CSPs (ΣΔδ) for all assigned APE1 residues / number of residues with relatively strong CSPs (Δδ ≥ 0.03 ppm): apo APE1^ΔN38 0.15 mM, compound 1 mM
T1 construct: Human APE1 lacking the 38 N-terminal residues (APE1^ΔN38); poly-His (N, cleaved yes); made in house; host or cells: E. coli
T1 sequence (P27695 39-318): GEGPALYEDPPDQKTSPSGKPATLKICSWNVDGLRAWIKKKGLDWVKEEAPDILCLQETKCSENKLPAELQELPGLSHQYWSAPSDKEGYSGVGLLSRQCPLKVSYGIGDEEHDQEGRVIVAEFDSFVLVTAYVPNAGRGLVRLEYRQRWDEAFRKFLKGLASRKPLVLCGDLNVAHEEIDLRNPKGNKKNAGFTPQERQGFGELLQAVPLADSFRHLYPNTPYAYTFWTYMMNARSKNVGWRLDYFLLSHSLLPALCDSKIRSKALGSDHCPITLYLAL

[2] = test system: APE1; details: cited from earlier work
[3] = Dynamic light scattering (DLS) of compound aggregation; assay type: physicochemical; details: for effect of detergent on aggregation: 0.05% Brij 35; for concentration at which colloidal aggregates form: 20°C; for effect of centrifugation on aggregates: detergent-free buffer, centrifugation (60 min, 16000g)
Procedure: Dynamic light scattering (DLS) experiments were performed to monitor compound aggregation, using a SpectroLight 610 instrument (Xtal Concepts, Hamburg). The instrument features a laser diode (λ 658 nm) which was set to a power of 100 mW and a scattering angle of 150°. For each sample, five replicates of 60 sec duration were collected at 20°C. Instrument settings, including integration time, were held constant for all experiments. Samples (1 ul) were prepared under mineral oil in 96 well SBS plates. Samples included the same buffer used for enzyme activity assays, with or without Brij 35 (and in all cases without BSA). The compounds were introduced from 100x stocks prepared in DMSO, giving a final DMSO concentration of 1%; samples without compound contained 1% DMSO. The DLS studies were in some cases performed using compound stocks that had been stored at –20°C in DMSO.

[4] = target: T2, Mg^2+-bound APE1 (Homo sapiens, UniProt P27695); assay: NMR chemical shift perturbation (15N-TROSY), Mg2+-bound APE1; assay type: binding; details: MgCl2 0.25 mM or 1.0 mM
T2 construct: Human APE1 lacking the 38 N-terminal residues (APE1^ΔN38); poly-His (N, cleaved yes); made in house; host or cells: E. coli
T2 sequence (P27695 39-318): as above
Procedure: NMR samples (0.55 mL) contained uniformly ^15N-labeled APE1^ΔN38 (0.05 mM to 0.15 mM) in 0.02 M sodium phosphate pH 6.5, 0.1 M NaCl, 0.5 mM DTT, 0.2 mM EDTA, 10% D2O. The compounds were dissolved at 100x concentration in deuterated DMSO (DMSO-D6) and were added to the NMR samples at 1% (v/v) to give the desired compound concentration (and 1% DMSO-D6). Control samples contained APE1 with 1% DMSO-D6. […] NMR data were processed with NMRPipe, and analyzed using NMRFAM-Sparky. The chemical shift perturbation (Δδ) for backbone ^1H-^15N resonances (combined) was calculated (by NMRFAM-Sparky) using Eq 2, Δδ=ΔδH^2+ΔδN/5^2^1/2 (2) where ΔδH and ΔδN are the perturbations for ^1H and ^15N resonances, respectively.
Given the findings above, we sought to investigate whether compounds 6 or 7 might bind to the Mg^2+-bound form of APE1. […] Crystal structures of Mg^2+-bound APE1 have been determined, using crystals grown from a sample of APE1 with 1.0 mM MgCl2, a concentration that is sufficient to fully populate the metal-binding site with Mg^2+ [52, 73]. […]

[5] = target: T3, Human APE1 lacking the 38 N-terminal residues (APE1^ΔN38) (Homo sapiens, UniProt P27695); assay: APE1 endonuclease activity assay (HPLC, fraction activity); assay type: biochemical
T3 construct: Human APE1 lacking the 38 N-terminal residues (APE1^ΔN38); poly-His (N, cleaved yes); made in house; host or cells: E. coli
T3 sequence (P27695 39-318): as above

[6] = Precipitation of compound in NMR samples; assay type: physicochemical; details: NMR buffer pH 6.5
Procedure: The NMR sample contained 0.03 mM compound 7 and 0.05 mM APE1, giving a molar ratio of 0.6. […] To minimize precipitation of 7, the NMR samples (including DMSO control) contained detergent (0.05% Brij 35) at the same concentration used for the activity assays. […] Thus, the NMR CSP studies provide no evidence that compound 7 binds specifically to apo-APE1. […] In particular, the population of AP-DNA bound was reduced from 100% (absence of 7) to about 30% and 5% in the presence of 7 at a concentration of 0.01 mM and 0.03 mM, respectively, indicating 7 binds with a Kd <0.01 mM to either APE1 or to AP-DNA.

[7] = test system: enzyme-substrate (ES) complex involving APE1 (28 nM) and AP-DNA (10 nM); set-up: method as in PMID 22455312; details: cited from earlier work; for population of AP-DNA bound: 100% in its absence
[8] = no detergent or BSA, 37°C, read-out: IC50 for APE1 inhibition (prior findings)
[9] = read-out: IC50 for APE1 inhibition (reported)
[10] = detergent-free assay buffer, 1% DMSO
[11] = 0.05% Brij 35, 0.1 mg/ml BSA, 80 nM DNA substrate, 23°C, 1% DMSO, read-out: IC50 for APE1 inhibition

SMILES: O=C(O)c1cc2cccc([N+](=O)[O-])c2[nH]1 [Compound 1, 7-nitroindole-2-carboxylic acid]
number of residues with substantial CSPs (Δδ ≥ 0.015 ppm) [1]: 14
sum of CSPs (ΣΔδ) for all assigned APE1 residues [1]: 1.19
IC50 [2, 8]: ≤ 10 µM
IC50 [2, 9]: 3 µM
effect of detergent on aggregation [3]: disrupted by detergent
concentration at which colloidal aggregates form [3, 10]: 2000 µM
effect of centrifugation on aggregates [3]: pelleted out of solution by centrifugation

SMILES: O=c1c(O)c(-c2cc(O)c(O)c(O)c2)oc2cc(O)cc(O)c12 [Compound 5, myricetin]
inhibition of APE1 ([5]; 0.33 mM compound, with detergent (0.05% Brij 35) and BSA): weak inhibition
IC50 ([2]; read-out: IC50 for APE1 inhibition (previous finding)): 0.3 µM
effect of detergent on aggregation [3]: disrupted by detergent
concentration at which colloidal aggregates form [3, 10]: ≥ 330 µM
effect of centrifugation on aggregates [3]: pelleted by centrifugation

SMILES: O=C(O)c1cc2cc([N+](=O)[O-])ccc2[nH]1 [Compound 3, 5-nitroindole-2-carboxylic acid]
number of residues with relatively strong CSPs (Δδ ≥ 0.03 ppm) [1]: 14
number of residues with substantial CSPs (Δδ ≥ 0.015 ppm) [1]: 20
sum of CSPs (ΣΔδ) for all assigned APE1 residues [1]: 2.47
effect of detergent on aggregation [3]: disrupted by detergent
effect of centrifugation on aggregates [3]: pelleted by centrifugation

SMILES: O=C(O)c1cc2cc(F)ccc2[nH]1 [Compound 2, 5-fluoroindole-2-carboxylic acid]
number of residues with substantial CSPs (Δδ ≥ 0.015 ppm) [1]: ten
sum of CSPs (ΣΔδ) for all assigned APE1 residues [1]: 1.31
IC50 [2, 8]: ≤ 10 µM
IC50 [2, 9]: 10 µM
effect of detergent on aggregation [3]: disrupted by detergent
concentrations at which the compound is free of aggregates [3, 10]: below 3 mM
concentration at which colloidal aggregates form [3, 10]: 10000 µM
effect of centrifugation on aggregates [3]: pelleted by centrifugation

SMILES: O=C(O)c1cc2ccc(Br)cc2[nH]1 [Compound 4, 6-bromoindole-2-carboxylic acid]
number of residues with relatively strong CSPs (Δδ ≥ 0.03 ppm) [1]: eight
number of residues with substantial CSPs (Δδ ≥ 0.015 ppm) [1]: 22
sum of CSPs (ΣΔδ) for all assigned APE1 residues [1]: 2.54
effect of detergent on aggregation [3]: disrupted by detergent
concentration at which colloidal aggregates form [3, 10]: ≥ 1000 µM
effect of centrifugation on aggregates [3]: pelleted by centrifugation

The next lines start with results.

CSPs (Δδ >0.015 ppm) for any residue of Mg2+-bound APE1 ([4]; compound 0.30 mM, APE1 0.10 mM): does not induce CSPs
residues exhibiting Δδ >0.015 ppm ([1]; 0.10 mM apo APE1, 0.30 mM compound): no residues
slope factor of the dependence of FA on compound concentration ([5]; 0.05% Brij 35, 0.1 mg/ml BSA): 1.5 ± 0.2
IC50 [5, 11]: 3.1 ± 0.3 µM
IC50 ([5]; as restated in the NMR section, read-out: IC50 observed here): 3 µM
SMILES: Cc1cc(C)c2c(N)c3cccc(C)c3nc2n1 [Compound 6]
IC50 ([2]; read-out: IC50 for APE1 inhibition in vitro (previous finding)): 2 µM

CSPs (Δδ >0.015 ppm) for any backbone residue of Mg2+-bound APE1 ([4]; compound 0.030 mM, APE1 0.05 mM, 0.05% Brij 35): fails to induce CSPs
residues exhibiting Δδ >0.015 ppm ([1]; 0.05 mM apo APE1, 0.03 mM compound, 0.05% Brij 35): two
Kd ([1]; inferred from the absence of a detectible interaction, apo-APE1 0.05 mM, compound 0.03 mM, read-out: Kd for binding to apo-APE1): > 30 µM
concentration at which the compound precipitates in NMR samples [6]: ≥ 90 µM
slope factor of the dependence of FA on compound concentration ([5]; 0.05% Brij 35, 0.1 mg/ml BSA): 1.2 ± 0.1
IC50 [5, 11]: 8.1 ± 0.6 µM
SMILES: CC(=O)Nc1sc2c(c1-c1nc3ccccc3s1)CCN(C(C)C)C2 [Compound 7, N-(3-(benzo[d]-thiazol-2-yl)-6-isopropyl-4,5,6,7-tetrahydrothieno[2,3-c]-pyridin-2-yl)acetamide]
population of AP-DNA bound ([7]; compound 0.01 mM): about 30%
population of AP-DNA bound ([7]; compound 0.03 mM): ~ 5%
Kd ([7]; inferred from the previous EMSA results, read-out: Kd for binding to either APE1 or AP-DNA): < 10 µM
